According to BindingDB's records for doi:10.1016/j.bmcl.2008.12.074 (Boehringer Ingelheim (Canada), 2009):

Tests used:
[1] = target: T1, Gag-Pol polyprotein [588-1027,K691N,Y769C]/[588-1147,K691N,Y769C] (Human immunodeficiency virus 1, UniProt P04585, K691N/Y769C); experiment: Reverse Transcriptase Assay
T1 construct: 588-1027; 588-1147

[2] = target: T2, Gag-Pol polyprotein [588-1027] (Human immunodeficiency virus type 1 group M subtype B (isolate HXB2), UniProt P04585); experiment: Reverse Transcriptase Assay; conditions: pH 7.4; 37 °C
T2 construct: 588-1027

**Q.** Which results are given for `Cc1ccc(-n2nnnc2SCC(=O)Nc2ccc(-c3ccc(CC(=O)O)cc3)cc2Cl)c(Cl)c1` [2-{4-[3-chloro-4-(2-{[1-(2-chloro-4-methylphenyl)-1H-1,2,3,4-tetrazol-5-yl]sulfanyl}acetamido)phenyl]phenyl}acetic acid]?
**A.** IC50 [1]: 0.048 µM; IC50 [2]: 0.0024 µM

**Q.** Which IC50 [1] does the source give for `Cc1ccc(-n2ncc(C)c2SCC(=O)Nc2ccc(-c3ccc(CC(=O)O)cc3)cc2Cl)c(Cl)c1` [2-{4-[3-chloro-4-(2-{[1-(2-chloro-4-methylphenyl)-4-methyl-1H-pyrazol-5-yl]sulfanyl}acetamido)phenyl]phenyl}acetic acid] here?
**A.** The IC50 was greater than 10 µM.

**Q.** And the IC50 [2]?
**A.** Its IC50 is greater than 10 µM.

**Q.** How did the IC50 [2] turn out when `Cc1ccc(-c2c(SCC(=O)Nc3ccc(-c4ccc(OCC(=O)O)cc4)cc3Cl)ccn2C)c(Cl)c1` [2-{4-[3-chloro-4-(2-{[2-(2-chloro-4-methylphenyl)-1-methyl-1H-pyrrol-3-yl]sulfanyl}acetamido)phenyl]phenoxy}acetic acid] was run?
**A.** The IC50 was greater than 1 µM.

**Q.** For `CC(C)(C)c1ccc(-c2c[nH]nc2OCC(=O)Nc2ccc(-c3ccc(CC(=O)O)cc3)cc2Cl)c(Cl)c1` [2-{4-[4-(2-{[4-(4-tert-butyl-2-chlorophenyl)-1H-pyrazol-3-yl]oxy}acetamido)-3-chlorophenyl]phenyl}acetic acid], which IC50 [2] is on record?
**A.** Its IC50 is greater than 3.3 µM.

**Q.** What does the source list for `Cc1ccc(-n2cc(C)nc2SCC(=O)Nc2ccccc2Cl)c(Cl)c1` [2-{[1-(2-chloro-4-methylphenyl)-4-methyl-1H-imidazol-2-yl]sulfanyl}-N-(2-chlorophenyl)acetamide]?
**A.** IC50 [1]: > 10 µM; IC50 [2]: > 1 µM

**Q.** What does the source list for `Cc1[nH]nc(OCC(=O)Nc2ccc(C#CC(C)(C)CO)cc2Cl)c1-c1ccc(C(C)(C)C)cc1Cl` [2-{[4-(4-tert-butyl-2-chlorophenyl)-5-methyl-1H-pyrazol-3-yl]oxy}-N-[2-chloro-4-(4-hydroxy-3,3-dimethylbut-1-yn-1-yl)phenyl]acetamide]?
**A.** EC50 [2]: > 5 µM; IC50 [2]: > 3.3 µM
